Data reported in ChEMBL document CHEMBL4699464, “Talascortenes A-G, Highly Oxygenated Diterpenoid Acids from the Sea-Anemone-Derived Endozoic Fungus Talaromyces scorteus AS-242” (2020).
≈ marks a conversion by molar mass, not a printed value.

What was measured:
Assay type in all cases: functional
[1] = system: Escherichia coli; experiment: Antimicrobial activity against Escherichia coli EMBLC-1 by serial dilution technique
[2] = system: Edwardsiella tarda; experiment: Antimicrobial activity against Edwardsiella tarda QDIO-9 by serial dilution technique
[3] = system: Pseudomonas aeruginosa; experiment: Antimicrobial activity against Pseudomonas aeruginosa QDIO-4 by serial dilution technique
[4] = system: Vibrio harveyi; experiment: Antimicrobial activity against Vibrio harveyi QDIO-7 by serial dilution technique
[5] = system: Aeromonas hydrophila; experiment: Antimicrobial activity against Aeromonas hydrophila QDIO-1 by serial dilution technique
[6] = system: Micrococcus luteus; experiment: Antimicrobial activity against Micrococcus luteus QDIO-3 by serial dilution technique
[7] = system: Vibrio parahaemolyticus; experiment: Antimicrobial activity against Vibrio parahaemolyticus QDIO-8 by serial dilution technique
[8] = system: Ceratobasidium cereale; experiment: Antimicrobial activity against Rhizoctonia cerealis QDAU-20 by serial dilution technique
[9] = system: Gaeumannomyces graminis; experiment: Antimicrobial activity against Gaeumannomyces graminis QDAU-21 by serial dilution technique
[10] = system: Fusarium oxysporum; experiment: Antimicrobial activity against Fusarium oxysporum QDAU-8 by serial dilution technique
[11] = system: Colletotrichum gloeosporioides; experiment: Antimicrobial activity against Colletotrichum gloeosporioides QDAU-2 by serial dilution technique

MIC [1]	MIC [2]	MIC [3]	MIC [4]	MIC [5]	MIC [6]	MIC [8]	MIC [9]	MIC [10]	MIC [11]	SMILES	MIC [7]
1 µg/mL (≈ 2.87 µM)	> 32 µg/mL	> 32 µg/mL	> 32 µg/mL	> 32 µg/mL	8 µg/mL (≈ 23 µM)	> 32 µg/mL	> 32 µg/mL	> 32 µg/mL	2 µg/mL (≈ 5.74 µM)	C=C[C@]1(C)CCC2=C(CC[C@@]3(O)[C@@](C)(C(=O)O)CCC[C@]23C)[C@H]1OC	> 32 µg/mL
8 µg/mL (≈ 22.8 µM)	> 32 µg/mL	> 32 µg/mL	> 32 µg/mL	> 32 µg/mL	> 32 µg/mL	> 32 µg/mL	> 32 µg/mL	> 32 µg/mL	> 32 µg/mL	C=C[C@]1(C)CCC2=C(CC[C@@]3(O)[C@@](C)(C(=O)O)[C@H](O)CC[C@]23C)[C@H]1O	> 32 µg/mL
> 32 µg/mL	> 32 µg/mL	32 µg/mL (≈ 87.8 µM)	> 32 µg/mL	> 32 µg/mL	> 32 µg/mL	> 32 µg/mL	> 32 µg/mL	> 32 µg/mL	> 32 µg/mL	C=C[C@]1(C)CCC2=C(CC[C@@]3(O)[C@@](C)(C(=O)O)[C@H](O)CC[C@]23C)[C@@H]1OC	8 µg/mL (≈ 21.9 µM)

The remaining lines, values behind:

SMILES	MIC [1]	MIC [2]	MIC [3]	MIC [4]	MIC [5]	MIC [6]	MIC [8]	MIC [9]	MIC [10]	MIC [11]	MIC [7]
C[C@]1(O)C[C@]23CC[C@H]1C[C@@H]2[C@@]1(C)CCC[C@](C)(C(=O)O)[C@]1(O)CC3	32 µg/mL (≈ 95.1 µM)	16 µg/mL (≈ 47.6 µM)	16 µg/mL (≈ 47.6 µM)	> 32 µg/mL	> 32 µg/mL	2 µg/mL (≈ 5.94 µM)	8 µg/mL (≈ 23.8 µM)	4 µg/mL (≈ 11.9 µM)	16 µg/mL (≈ 47.6 µM)	> 32 µg/mL	> 32 µg/mL
C[C@@H]1[C@H](O)[C@@H](C)/C=C/C=C/C=C/C=C/C=C/C=C/C=C/[C@H](O[C@@H]2O[C@H](C)[C@@H](O)[C@H](N)[C@@H]2O)C[C@@H]2O[C@](O)(C[C@@H](O)C[C@@H](O)[C@H](O)CC[C@@H](O)C[C@@H](O)CC(=O)O[C@H]1C)C[C@H](O)[C@H]2C(=O)O [AMPHOTERICIN B]							1 µg/mL (≈ 1.08 µM)	1 µg/mL (≈ 1.08 µM)	0.5 µg/mL (≈ 0.541 µM)	2 µg/mL (≈ 2.16 µM)	
C=C[C@H]1[C@@H]2CC[C@@]3(O)[C@@](C)(C(=O)O)[C@H](O)CC[C@]3(C)[C@H]2CC[C@@]1(O)CCl	> 32 µg/mL	> 32 µg/mL	> 32 µg/mL	> 32 µg/mL	> 32 µg/mL	4 µg/mL (≈ 10.3 µM)	> 32 µg/mL	> 32 µg/mL	> 32 µg/mL	> 32 µg/mL	32 µg/mL (≈ 82.7 µM)
C=C[C@]1(C)CCC2=C(CC[C@]3(O)[C@@](C)(C(=O)O)CCC[C@]23C)[C@H]1O	16 µg/mL (≈ 47.8 µM)	> 32 µg/mL	> 32 µg/mL	8 µg/mL (≈ 23.9 µM)	16 µg/mL (≈ 47.8 µM)	> 32 µg/mL	> 32 µg/mL	> 32 µg/mL	> 32 µg/mL	> 32 µg/mL	> 32 µg/mL
C=C[C@]1(C)CC[C@@]2(O)[C@](O)(CC[C@]3(O)[C@]2(C)CCC[C@]3(C)C(=O)O)C1	8 µg/mL (≈ 22.7 µM)	> 32 µg/mL	> 32 µg/mL	> 32 µg/mL	> 32 µg/mL	> 32 µg/mL	> 32 µg/mL	> 32 µg/mL	> 32 µg/mL	> 32 µg/mL	> 32 µg/mL
C=C1CC[C@]2(O)[C@](C)(CCC[C@]2(C)C(=O)O)[C@]1(O)CC/C(C)=C/CO	> 32 µg/mL	> 32 µg/mL	> 32 µg/mL	> 32 µg/mL	> 32 µg/mL	> 32 µg/mL	> 32 µg/mL	> 32 µg/mL	> 32 µg/mL	> 32 µg/mL	8 µg/mL (≈ 22.7 µM)
O=C(N[C@H](CO)[C@H](O)c1ccc([N+](=O)[O-])cc1)C(Cl)Cl [CHLORAMPHENICOL]	1 µg/mL (≈ 3.09 µM)	0.5 µg/mL (≈ 1.55 µM)	2 µg/mL (≈ 6.19 µM)	2 µg/mL (≈ 6.19 µM)	4 µg/mL (≈ 12.4 µM)	1 µg/mL (≈ 3.09 µM)					0.5 µg/mL (≈ 1.55 µM)
